We go through 5 compounds from paper PMC9671096 (Molecular pharmaceutics, 2021).

SMILES strings stand for the structures. Where a SMILES comes first, the peptide text is derived from it. The star is where a group is joined. Cbz = O=C(OCc1ccccc1)*

Assay [1] deals with T1, GPER (Homo sapiens, UniProt Q99527). As to the kind of experiment: Intact cell competitive binding assay with E2-FITC tracer. The conditions noted are these: intact SKBR3 cells, concentrations as high as 10 μM.
The target in the next assay is HiBiT-GPER (Homo sapiens, UniProt Q99527). It counts as cell-based. As to conditions: for effect on UI-EP001/UI-EP002-mediated degradation of HiBiT-GPER: with 100 μM UI-EP001 or UI-EP002, 1 hour, MG132 10 μM, chloroquine 100 μM, E2 or aldosterone 100 nM-100 μM.
Sequence of HiBiT-GPER (Q99527 whole entry): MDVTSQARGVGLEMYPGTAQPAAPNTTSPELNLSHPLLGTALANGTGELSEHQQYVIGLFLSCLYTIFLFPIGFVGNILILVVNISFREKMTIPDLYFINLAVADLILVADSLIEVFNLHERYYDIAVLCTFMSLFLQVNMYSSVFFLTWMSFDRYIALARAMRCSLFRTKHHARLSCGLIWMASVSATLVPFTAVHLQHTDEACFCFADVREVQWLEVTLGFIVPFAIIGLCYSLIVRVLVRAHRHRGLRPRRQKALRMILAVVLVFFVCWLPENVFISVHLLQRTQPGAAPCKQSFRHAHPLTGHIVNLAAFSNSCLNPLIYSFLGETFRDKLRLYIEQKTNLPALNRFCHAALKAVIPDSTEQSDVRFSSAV
The target of the next assay is T2, HiBiT-ERα (Homo sapiens, UniProt P03372).
T2 sequence (P03372 1-595): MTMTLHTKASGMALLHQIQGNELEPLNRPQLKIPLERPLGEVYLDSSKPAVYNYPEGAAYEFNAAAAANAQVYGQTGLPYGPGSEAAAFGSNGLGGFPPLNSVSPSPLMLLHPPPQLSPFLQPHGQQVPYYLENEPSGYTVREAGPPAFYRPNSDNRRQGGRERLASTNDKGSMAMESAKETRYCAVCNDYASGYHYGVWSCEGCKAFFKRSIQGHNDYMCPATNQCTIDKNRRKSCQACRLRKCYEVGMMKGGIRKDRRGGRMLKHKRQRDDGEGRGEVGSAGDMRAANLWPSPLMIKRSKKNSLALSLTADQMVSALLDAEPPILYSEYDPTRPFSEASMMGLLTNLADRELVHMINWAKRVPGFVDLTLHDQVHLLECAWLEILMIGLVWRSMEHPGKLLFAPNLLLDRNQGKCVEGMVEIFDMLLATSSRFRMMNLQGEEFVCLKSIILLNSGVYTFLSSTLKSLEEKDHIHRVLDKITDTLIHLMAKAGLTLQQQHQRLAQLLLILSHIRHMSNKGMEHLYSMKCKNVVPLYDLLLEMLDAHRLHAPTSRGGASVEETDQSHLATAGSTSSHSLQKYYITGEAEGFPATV
Type of assay: cell-based. The conditions noted are these: for effect on UI-EP001/UI-EP002-mediated degradation of HiBiT-ERα: with 100 μM UI-EP001 or UI-EP002, 1 hour, MG132 10 μM, chloroquine 100 μM, E2 or aldosterone 100 nM-100 μM. On the technique in general: With HiBiT, luminescence reflects the tagged protein that the partner subunit can reach.

The next assay has as its target T3, ERα (Homo sapiens, UniProt P03372).
T3 sequence (P03372 1-595): T2 sequence (P03372 1-595)
Description: Immunostaining of endogenous ERα in MCF-7 cells. It counts as cell-based. The conditions noted are these: 1 hour.

The next assay has as its target ERβ (Homo sapiens, UniProt Q92731). Description: Immunostaining of endogenous ERβ in MCF-7 cells. Type of assay: cell-based. As to conditions: 1 hour.
Assay [2] has as its target T1, GPER. Description: Immunostaining of endogenous GPER in MCF-7 cells. Type of assay: cell-based. The conditions noted are these: 1 hour.
In a further assay the test system is MCF-7. Description: Cell cycle analysis. It counts as cell-based, human. As to conditions: MCF-7, 10 μM, 24 hours.
For the next assay, the system named is SKBR3. As to the kind of experiment: Cell cycle analysis. The conditions noted are these: SKBR3, 10 μM, 24 hours. It counts as cell-based, human.
The test system of another assay is HCC-1806. Description: Cell cycle analysis. Type of assay: cell-based, human. The conditions noted are these: HCC-1806, 10 μM, 24 hours.
A further assay relates to MDA-MB-231. As to the kind of experiment: Cell cycle analysis. It counts as cell-based, human. The conditions noted are these: MDA-MB-231, 10 μM, 24 hours.
The next assay deals with ERs. Type of assay: binding, human. As to conditions: IC50 of 17β-E2 divided by IC50 of test compound; MCF-7 cytosol.

T1 sequence (Q99527 whole entry): as the sequence (Q99527 whole entry) above
Sequence of ERβ (Q92731 whole entry): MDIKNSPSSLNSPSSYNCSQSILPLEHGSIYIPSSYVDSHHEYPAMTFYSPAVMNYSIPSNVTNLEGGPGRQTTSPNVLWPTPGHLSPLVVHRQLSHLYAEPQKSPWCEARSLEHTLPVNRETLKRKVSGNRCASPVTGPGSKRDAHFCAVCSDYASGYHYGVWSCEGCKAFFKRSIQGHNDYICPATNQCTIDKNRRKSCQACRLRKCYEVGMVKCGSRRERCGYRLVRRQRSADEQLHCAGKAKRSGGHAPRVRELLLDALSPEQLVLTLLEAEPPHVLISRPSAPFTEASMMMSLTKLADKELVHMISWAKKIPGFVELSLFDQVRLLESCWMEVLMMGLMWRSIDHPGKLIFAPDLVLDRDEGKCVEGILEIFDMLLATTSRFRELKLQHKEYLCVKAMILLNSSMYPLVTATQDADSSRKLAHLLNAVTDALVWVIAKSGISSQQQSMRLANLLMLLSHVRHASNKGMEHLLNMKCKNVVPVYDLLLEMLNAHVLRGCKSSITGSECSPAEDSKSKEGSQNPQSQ

Regarding `Cc1ncsc1-c1ccc(CNC(=O)C2CC(O)CN2C(=O)C(NC(=O)COCCOCCOCCOCC(=O)O)C(C)(C)C)cc1` (centres unmarked) [Partial PROTAC], the “competition for E2-FITC binding to GPER” value on GPER [1] is listed as “unable to compete”. For the same compound, the “decrease of HiBiT-GPER” value on HiBiT-GPER (100 μM, 1 hour) is reported as “did not show any significant decrease”. Moreover, the “receptor present following treatment” value on HiBiT-GPER (100 μM, 8 hrs, text does not say which receptor (HiBiT-GPER or HiBiT-ER)) was found to be 83%. Further, the “decrease of HiBiT-ERα” value on HiBiT-ERα (100 μM, 1 hour) is listed as “did not show any significant decrease”. Also, the “reduction of nuclear ERα” value at ERα is “did not impact”. In addition, at ERβ, the “reduction of nuclear ERβ” value is listed as “did not impact”. Besides, the “reduction of intracellular GPER” value on GPER [2] is listed as “did not impact”. Further, the “cell cycle distribution shift (G2/M arrest)” value in the assay on MCF-7, in the assay with SKBR3, in the assay with HCC-1806 and in the assay with MDA-MB-231 was “much less significant shift” throughout.
Consider `CC(C)C[C@@H](C=O)NC(=O)[C@H](CC(C)C)NC(=O)[C@H](CC(C)C)NC(=O)OCc1ccccc1` [MG132] (Cbz-Leu-Leu-Leu-aldehyde), for which the “effect on UI-EP001/UI-EP002-mediated degradation of HiBiT-GPER” value (“effect … of HiBiT-GPER” below) on HiBiT-GPER is on record as “reversed”. Besides, on HiBiT-ERα, the “effect on UI-EP001/UI-EP002-mediated degradation of HiBiT-ERα” value is on record as “reversed”.
`C[C@]12CC[C@@H]3c4ccc(O)cc4CC[C@H]3[C@@H]1CC[C@@H]2O` [Estradiol, 17β-estradiol]: in the assay on ERs, the “ERs RBA%” value stood at 100.0%.
For the compound `C[C@]12CCC(=O)C=C1CC[C@@H]1[C@@H]2[C@@H](O)C[C@]2(C=O)[C@@H](C(=O)CO)CC[C@@H]12` [aldosterone], on HiBiT-GPER, the “effect … of HiBiT-GPER” value is “not aldosterone was capable of blocking”. Further, the “effect on UI-EP001/UI-EP002-mediated degradation of HiBiT-ERα” value on HiBiT-ERα is recorded as “not aldosterone was capable of blocking”.
Regarding `CCN(CC)CCCC(C)Nc1ccnc2cc(Cl)ccc12` (centres unmarked) [chloroquine, chloroquine diphosphate], the “effect … of HiBiT-GPER” value at HiBiT-GPER is “had no such effect”.
